According to BigSolDB 2.1:

c1ccc2ccccc2c1
Conditions	solubility (mole fraction)
in acetone, 297.17 K	0.211
in acetone, 298.11 K	0.218
in acetone, 300.23 K	0.233
in acetone, 301.55 K	0.246
in acetone, 303.47 K	0.259
in acetone, 305.14 K	0.272
in acetone, 306.63 K	0.285
in acetone, 307.76 K	0.297
in acetone, 309.37 K	0.31
in acetone, 311.03 K	0.323
in acetone, 312.03 K	0.335
in acetone, 312.97 K	0.347
in acetone, 314.37 K	0.361
in acetone, 315.74 K	0.376
in acetone, 317.26 K	0.394
in acetone, 319.06 K	0.415
in acetone, 320.87 K	0.44
in acetone, 322.7 K	0.459
in ethanol, 304.26 K	0.0464
in ethanol, 307.44 K	0.0531
in ethanol, 309.53 K	0.0566
in ethanol, 311.93 K	0.0614
in ethanol, 314.52 K	0.0658
in ethanol, 315.93 K	0.0703
in ethanol, 318.07 K	0.076
in ethanol, 319.8 K	0.0816
in ethanol, 321.46 K	0.0876
in ethanol, 323.45 K	0.103
in ethanol, 325.68 K	0.116
in ethanol, 327.32 K	0.129
in ethanol, 329.34 K	0.14
in ethanol, 330.43 K	0.154
in ethanol, 332 K	0.174
in ethanol, 333.9 K	0.204
in ethanol, 335.9 K	0.238
in ethanol, 337.76 K	0.293
in ethanol, 339.76 K	0.382
in n-butanol, 313.77 K	0.113
in n-butanol, 315.17 K	0.119
in n-butanol, 317.98 K	0.139
in n-butanol, 320.74 K	0.159
in n-butanol, 323.67 K	0.183
in n-butanol, 325.6 K	0.205
in n-butanol, 327.76 K	0.228
in n-butanol, 329.03 K	0.252
in n-butanol, 331.8 K	0.294
in n-butanol, 333.65 K	0.333
in n-butanol, 335.1 K	0.375
in n-butanol, 337 K	0.436
in n-butanol, 338.15 K	0.477
in n-butanol, 339.63 K	0.526
in n-butanol, 340.65 K	0.567
in n-butanol, 342.04 K	0.62
in n-butanol, 342.8 K	0.66
in n-heptane, 290.25 K	0.0595
in n-heptane, 294.3 K	0.0705
in n-heptane, 297.85 K	0.0798
in n-heptane, 301.37 K	0.0889
in n-heptane, 303.04 K	0.0978
in n-heptane, 305.3 K	0.107
in n-heptane, 307.53 K	0.115
in n-heptane, 309.63 K	0.123
in n-heptane, 311.2 K	0.133
in n-heptane, 312.6 K	0.141
in n-heptane, 314.13 K	0.15
in n-heptane, 315.15 K	0.158
in n-heptane, 316.63 K	0.168
in n-heptane, 317.65 K	0.177
in n-heptane, 321.33 K	0.209
in n-heptane, 324.25 K	0.23
in n-heptane, 326.98 K	0.265
in n-heptane, 329.45 K	0.304
in n-heptane, 330.26 K	0.329
in n-heptane, 331.5 K	0.35
in n-heptane, 333.75 K	0.389
in toluene, 291.35 K	0.239
in toluene, 301.45 K	0.31
in toluene, 304.54 K	0.34
in toluene, 308.53 K	0.374
in toluene, 311.93 K	0.406
in toluene, 315.25 K	0.439
in toluene, 318.55 K	0.472
in toluene, 322.23 K	0.503
in toluene, 324.37 K	0.537
in toluene, 327.55 K	0.589
in toluene, 331.35 K	0.637
in toluene, 334.65 K	0.677
